According to patent US20210386756A1, “IMPROVEMENTS FOR PERFORMING AND FACILITATING THE RECOVERY AFTER HEMATOPOIETIC STEM CELL TRANSPLANTATION” (Centro de Investigaciones Energéticas, Medioambientales y …, priority 2018, published 2021):

Key:
[1] = molecular target: T1, sex hormone-binding globulin (SHBG) (Homo sapiens, UniProt P04278); settings: cited from earlier work
T1 sequence (P04278 30-402): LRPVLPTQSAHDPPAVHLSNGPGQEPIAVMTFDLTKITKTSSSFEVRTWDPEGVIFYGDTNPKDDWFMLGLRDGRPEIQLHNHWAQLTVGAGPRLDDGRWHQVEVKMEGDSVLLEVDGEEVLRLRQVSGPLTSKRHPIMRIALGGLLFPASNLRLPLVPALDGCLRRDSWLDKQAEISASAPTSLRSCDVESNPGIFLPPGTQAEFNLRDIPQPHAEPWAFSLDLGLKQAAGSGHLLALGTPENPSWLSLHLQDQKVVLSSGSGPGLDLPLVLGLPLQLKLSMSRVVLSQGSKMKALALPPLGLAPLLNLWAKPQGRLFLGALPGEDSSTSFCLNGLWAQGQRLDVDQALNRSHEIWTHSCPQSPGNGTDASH

ESRα = molecular target: T2, ESRα (Homo sapiens, UniProt P03372); settings: cited from earlier work
T2 sequence (P03372 1-595): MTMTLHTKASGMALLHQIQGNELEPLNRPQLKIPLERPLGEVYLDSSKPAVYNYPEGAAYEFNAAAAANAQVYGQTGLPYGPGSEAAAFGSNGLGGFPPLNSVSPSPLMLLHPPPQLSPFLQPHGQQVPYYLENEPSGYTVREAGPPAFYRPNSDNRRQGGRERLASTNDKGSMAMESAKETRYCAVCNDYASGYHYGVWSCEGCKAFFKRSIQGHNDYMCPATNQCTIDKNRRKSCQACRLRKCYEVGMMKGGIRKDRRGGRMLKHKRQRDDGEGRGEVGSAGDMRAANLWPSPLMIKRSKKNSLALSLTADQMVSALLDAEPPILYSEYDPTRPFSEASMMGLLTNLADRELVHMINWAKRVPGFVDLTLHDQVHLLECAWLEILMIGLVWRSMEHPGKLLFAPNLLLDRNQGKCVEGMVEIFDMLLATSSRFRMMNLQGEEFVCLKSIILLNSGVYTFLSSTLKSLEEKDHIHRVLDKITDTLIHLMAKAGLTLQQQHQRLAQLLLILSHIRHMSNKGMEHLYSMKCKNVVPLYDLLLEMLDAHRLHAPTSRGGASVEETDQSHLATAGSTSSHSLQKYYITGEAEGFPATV

human cord blood CD34+ = assay: Human engraftment in female NSG mice transplanted with a limited CD34+ cell dose (5×10^3); format: in vivo, mouse; settings: low dose 5×10^3 hCD34+, mean +/− SEM
From the text: FIG. 7A indicates human hematopoietic reconstitution after four months. […] However, in spite of this presence of endogenous estrogens, the human engraftment in female recipients was increased after E2 and more importantly after E4 treatment. FIG. 7B relates the presence of primitive hematopoietic progenitors was higher in the female mice treated with estrogens, which indicated the quality of the reconstitution. (Kruskal-Wallis test; P<0.05, 4 mice per group). […] Three-four months later, the animals were sacrificed and the human hematopoietic engraftment was analyzed by FACS. Human hematopoietic population was identified as the cells positive for hCD45-APC-Cy7 (Biolegend) and negative for mouse CD45.1-PE (Biolegend). To assess whether estrogen can improve hematopoietic reconstitution in female recipients, female NSG were irradiated and transplanted by a low doses of human cord blood CD34^+ (5×10^3 hCD34^+). The human engraftment was analyzed as described in Example 1. […] However, in spite of this presence of endogenous estrogens, the human engraftment in female recipients was increased after E2 and more importantly after E4 treatment.

[2] = test system: mouse MSCs (mCD140a+) and vascular endothelial cells (mCD144+); assay: Mouse BM niche analysis (MSCs and vascular endothelial cells) after transplant and estrogen treatment; format: in vivo; settings: four months after transplant, versus vehicle-treated animals
Procedure: FIG. 12 refers to modulation of the hematopoietic niche by estrogens. […] FIG. 12B refers to the relative mouse vascular endothelial cells (mCD144+ or VE-Cadherin+) in the BM of the male mice transplanted with 5×10^4 hCB-CD34+ cells analyzed 4 months after transplantation. […] Data are presented by dots and box-plots that represent the interquartile range (p75, upper edge; p25, lower edge; p50, midline; p95, line above the box; and p5, line below the box). Significance was analyzed by Mann-Whitney U test and represented by **P<0.01.
To provide a further insight into the positive impact of estrogens on promoting human hematopoietic engraftment, we examined mesenchymal and vascular endotelial compartments of the mouse BM niche four months after being transplanted and treated with E2 (estradiol) or E4 (estetrol). The percentage of mouse MSCs (mCD140a+, also called Pdgfra+) and vascular endothelial cells (mCD144+, also called VE-Cadherin+) was analyzed in the non-hematopoietic compartment ([…]).

For `C[C@]12CC[C@@H]3c4ccc(O)cc4CC[C@H]3[C@@H]1[C@@H](O)[C@@H](O)[C@@H]2O` [E4, estetrol], the “binding by SHBG” value [1] is given as “not bound”, the “affinity for ER relative to β-estradiol” value (ESRα) is given as “less affinity than β-estradiol” and the “affinity for ESRα versus ESRβ” value (ESRα) is given as “high affinity for ESRα as compared to the ESRβ”. The “Percentage of hematopoietic stem cells (hCD34+/hCD38−) in the human hematopoietic population” value (human cord blood CD34+) was 0.39 +/− 0.08 (n = 3) %, the “Percentage of human hematopoietic reconstitution” value (human cord blood CD34+) was 40.80 +/− 4.58 (n = 3) % and the “number of mCD140a+ cells (mouse MSCs) in BM” value [2] was “increased”.
